Reference: US11752125B2, “Anti-neuroinflammatory and protective compounds in Achillea fragrantissima” (THE STATE OF ISRAEL MINISTRY OF AGRICULTURE & RURAL …, priority 2013, dated 2023)

Experiments:
Format in all cases: cell-based, rat
[1] = test system: p38; test: H2O2-induced p38 phosphorylation in astrocytes (ELISA); conditions: astrocytes preincubated 2 h, H2O2 175 μM 40 min
Method: Astrocytes were treated with 175 μM of H2O2 for 40 min following preincubation with achillolide A for 2 h. The levels of phosphorylated and total MEK1 (FIG. 40A), phosphorylated and total ERK1/2 (FIG. 40B), phosphorylated SAPK/JNK (FIG. 40C) and phosphorylated p38 (FIG. 40D) were measured by ELISA. The results are means±SEM of two experiments (n=4) for MEK1 and ERK 1/2, one experiment for SAPK/JNK and p38 (n=2). ***p<0.001.

[2] = test system: MMP-9; test: MMP-9 activity in LPS-activated microglial cells (gelatin zymography); conditions: LPS 4.5 ng/mL, 24 h
Source text: Determination of MMP Activities in Conditioned Media of Microglial Cells. MMP-9 activity was quantified by gelatin zymography.
1. Prepare a primary culture of microglial cells and plate cells as described in “Anti-neuroinflammatory effects of the extract of achillea fragrantissima” 2011. A. Elmann, S. Mordechay, H. Erlank, A. Telerman, M. Rindner, R. Ofir. BMC Complementary and Alternative Medicine. 11:98; 2. Treat cells with freshly diluted AcA of the invention; 3. Activate microglial cells with lipopolysaccharide (LPS, 4.5 nanograms/mL); 4. Measure the levels of MMP-9 by gel zymography as described in “Anti-neuroinflammatory effects of the extract of achillea fragrantissima” 2011. A. Elmann, S. Mordechay, H. Erlank, A. Telerman, M. Rindner, R. Ofir. BMC Complementary and Alternative Medicine. 11:98. 5. […]
Microglial cells were treated with the indicated concentrations of achillolide A, followed by stimulation with LPS (4.5 ng/mL). […] The levels of MMP-9 transcripts were measured by quantitative real-time PCR. The results from three technical replicates were normalized to β-actin and are expressed as relative quantity of MMP-9 transcripts in FIG. 23 B. The results are means±SD of one representative experiment out of three experiments. Cell viability was determined 24 h later by the crystal violet assay. […]

[3] = test system: microglial cells; test: Viability of LPS-activated microglial cells (MTT); conditions: MTT 20 hr later
Method: Microglial cells were activated with LPS in the presence or absence of different concentrations of 3,5,4′-trihydroxy-6,7,3′-trimethoxyflavone. Cell viability was determined (using MTT) 20 hr later.

[4] = test system: CREB; test: H2O2-induced CREB phosphorylation in astrocytes (ELISA); conditions: astrocytes pretreated 2 h, H2O2 175 μM 30 min; total CREB not affected
Method: Astrocytes were treated with TTF 2 h before the addition of H2O2. Cells were lysed 40 minutes after the addition of H2O2 in lysis buffer supplied by PathScan sandwich ELISA kit (Cell Signaling TECHNOLOGY) according to the manufacturer's protocol. Protein concentrations in cell lysates were determined by Bradford reagent (Bio-Rad, Hercules, Calif.), and equal amounts of proteins were subjected to ELISA. To measure the amount of total and phosphoSAPK/JNK in cell lysates of astrocytes, ELISA was performed according to the manufacturer's protocol using the PathScan total SAPK/JNK sandwich ELISA kit (Cell Signaling TECHNOLOGY) and the PathScan phospho-SAPK/JNK (Thr183/Tyr185) sandwich ELISA kit (Cell Signaling TECHNOLOGY), respectively. […] The optical density was determined at 450 nm using a microplate reader.
1. […] Determine the optical density at 450 nm using a microplate reader.
Astrocytes were treated with 175 μM of H2O2 for 30 min following preincubation with TTF for 2 h. The levels of phosphorylated and total CREB were measured by ELISA. […]

C=C1CCC2=C(CO)C(=O)O[C@H]2/C=C(\C)[C@H](OC(C)=O)CC1=O [achillolide A]
effect on H2O2-induced phosphorylation of p38 [1]: inhibitory effect | effect on LPS-induced MMP-9 activity [2]: markedly inhibited

COc1cc(-c2oc3cc(OC)c(OC)c(O)c3c(=O)c2O)ccc1O [TTF, 3,5,4′-trihydroxy-6,7,3′-trimethoxyflavone]
cytotoxicity to microglial cells [3]: not cytotoxic | inhibition of H2O2-induced phosphorylation of CREB [4]: 80%
